According to patent US20260209234A1, “SUBSTITUTED DIHYDROPYRROLO[3,4-D]PYRIMIDINE COMPOUNDS AND THEIR USE IN TREATING MEDICAL CONDITIONS” (Karuna Therapeutics, Inc., priority 2022, published 2026):
pEC50: −log10 of the molar value.

Experiments:
hM4 receptors = target: T1, hM4 receptors (Homo sapiens, UniProt P08173); experiment: Human M4 PAM pERK assay; assay type: cell-based; settings: CHO cells expressing hM4; EC20 of acetylcholine (10 nM final); TR-FRET
T1 construct: expressed in transfected cells; host or cells: CHO cells
T1 sequence (P08173 1-479): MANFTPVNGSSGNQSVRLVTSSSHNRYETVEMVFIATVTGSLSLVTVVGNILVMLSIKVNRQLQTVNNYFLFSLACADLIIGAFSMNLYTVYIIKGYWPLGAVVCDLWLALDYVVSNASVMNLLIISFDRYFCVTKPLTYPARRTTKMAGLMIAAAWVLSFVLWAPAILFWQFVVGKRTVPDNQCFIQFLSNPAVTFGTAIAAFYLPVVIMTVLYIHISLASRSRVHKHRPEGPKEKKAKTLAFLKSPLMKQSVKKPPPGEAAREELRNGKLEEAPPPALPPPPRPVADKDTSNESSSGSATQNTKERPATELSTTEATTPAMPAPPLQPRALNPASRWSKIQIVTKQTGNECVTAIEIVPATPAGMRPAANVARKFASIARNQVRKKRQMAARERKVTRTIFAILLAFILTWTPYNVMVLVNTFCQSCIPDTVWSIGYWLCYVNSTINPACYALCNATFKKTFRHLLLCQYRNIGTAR

rM4 receptors = target: T2, rM4 receptors (Rattus norvegicus, UniProt P08485); experiment: Rat M4 PAM pERK assay; assay type: cell-based; settings: CHO cells expressing rM4; EC20 of acetylcholine (10 nM final); TR-FRET
T2 construct: expressed in transfected cells; host or cells: CHO cells
T2 sequence (P08485 1-478): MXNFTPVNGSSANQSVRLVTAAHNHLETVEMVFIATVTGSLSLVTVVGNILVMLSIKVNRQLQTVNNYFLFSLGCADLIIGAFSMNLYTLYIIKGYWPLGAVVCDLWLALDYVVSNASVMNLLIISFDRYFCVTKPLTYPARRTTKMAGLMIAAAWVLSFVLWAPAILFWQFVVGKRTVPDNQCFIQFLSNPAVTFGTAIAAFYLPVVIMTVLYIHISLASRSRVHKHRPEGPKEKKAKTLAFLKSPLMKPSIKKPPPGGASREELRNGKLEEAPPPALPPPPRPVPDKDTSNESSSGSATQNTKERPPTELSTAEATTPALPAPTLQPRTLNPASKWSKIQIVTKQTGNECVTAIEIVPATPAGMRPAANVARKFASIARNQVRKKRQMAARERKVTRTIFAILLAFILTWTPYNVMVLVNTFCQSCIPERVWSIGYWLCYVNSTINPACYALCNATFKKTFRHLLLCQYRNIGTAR

human M4 receptor = target: T3, human M4 receptor (Homo sapiens, UniProt P08173); experiment: M4 GTPγS PAM assay; assay type: biochemical; settings: membranes of CHO-K1 cells stably expressing human M4; EC20 acetylcholine 40 nM; 35S-GTP
T3 construct: expressed in transfected cells
T3 sequence (P08173 1-479): T1 sequence (P08173 1-479)
Method: The M4 GTPγS PAM method was used. Membranes were prepared for GTPgS binding assays from CHO-K1 cells stably expressing human M4 receptor. Briefly, cells were grown in 5-layer cell culture flasks. Cells were washed with 50 mL of PBS and then dissociated with 0.05% trypsin. Dissociated cells were then collected by centrifugation at 650×g for 8 minutes at 4° C. Pellets were washed again in PBS by centrifugation and resuspended in 30 mL of 20 mM HEPES, 10 mM EDTA, pH 7.4. After sitting on ice for 30 min, membranes were collected by centrifugation at 50000×g for 15′ at 4° C., resuspended in 30 mL of 20 mM HEPES, 0.1 mM EDTA, pH 7.4 and collected again by centrifugation. Pellets were then washed twice by centrifugation in 30 mL of 20 mM HEPES, pH 7.4, and stored at −80° C. until the day of the assay. On the day of the assay, pellets were thawed on ice and resuspended in 1 mL of 20 mM HEPES, pH 7.4, 10 mM MgCl2, 100 mM NaCl using dounce homogenization. Membrane protein concentration is determined by BCA protein assay (Promega, Madison, WI) according to Promega guidelines.
On the day of the assay, serial dilutions of test PAM compounds were brought up in assay buffer (20 mM HEPES, 10 mM MgCl2, 100 mM NaCl) at 4× final assay concentration. […] of membrane homogenates (containing […] of membrane protein) were prepared in assay buffer supplemented with GDP at 4× final assay concentration (final assay concentration of GDP is 5 μM for M2 and 0.1 μM for M4) and dispensed into 96 well polypropylene, U-bottom Greiner plates. […] of vehicle or test PAM compound at 4× of final assay concentration diluted in the assay buffer were added to membrane and plates are incubated for 10-15 minutes at room temperature with gentle shaking. Then, […] of EC20 acetylcholine in assay buffer at 4× final assay concentration was added to assay plates (EC20 final assay concentrations was 40 nM for human M4).
Plates were then incubated, with shaking, for an additional 10-15 minutes. […] of 0.4 nM 35S-GTP (Perkin Elmer, Waltham, MA) in assay buffer was added to assay mixtures. The binding reaction is left on the shaker for 1 hour at room temperature. Membranes in assay reactions were then transferred to GF/C filter plates (Unifilter, Perkin Elmer) and washed three times using a FilterMate Harvester (Perkin Elmer) with cold assay buffer containing no GDP. Filter plates were then dried at 40° C. overnight followed by the addition of […] of Beta Plate Scintillation liquid. Plates are top and bottom sealed before being read on TopCount scintillation counter (Perkin Elmer, Waltham, MA).

## COc1nc(C#N)nc2c1C(C)N(C(=O)CC1CN(c3cnnc(C(F)(F)F)c3)C1)C2 (single isomer, unassigned) [Compound I-25, 4-Methoxy-5-methyl-6-(2-(1-(6-(trifluoromethyl)pyridazin-4-yl)azetidin-3-yl)acetyl)-6,7-dihydro-5H-pyrrolo[3,4-d]pyrimidine-2-carbonitrile]
hM4 receptors
  pEC50: 6.30 to 7.00
rM4 receptors
  pEC50: 5.70 to 6.30
Human M4 receptor
  pEC50: 6.30 to 7.00

## COc1nc(C#N)nc2c1C(C)N(C(=O)CC1CN(c3cccc(C(F)(F)F)c3)C1)C2 (single isomer, unassigned) [Compound I-15, 4-Methoxy-5-methyl-6-(2-(1-(3-(trifluoromethyl)phenyl)azetidin-3-yl)acetyl)-6,7-dihydro-5H-pyrrolo[3,4-d]pyrimidine-2-carbonitrile]
hM4 receptors
  pEC50: ≤ 5.70
rM4 receptors
  pEC50: ≤ 5.70
Human M4 receptor
  pEC50: ≤ 5.70

## COc1nc(C#N)nc2c1C(C)N(C(=O)CC1CN(c3ccnc(C4CC4)c3)C1)C2 (single isomer, unassigned) [Compound I-12, 6-(2-(1-(2-Cyclopropylpyridin-4-yl)azetidin-3-yl)acetyl)-4-methoxy-5-methyl-6,7-dihydro-5H-pyrrolo[3,4-d]pyrimidine-2-carbonitrile]
hM4 receptors
  pEC50: ≥ 7.00
rM4 receptors
  pEC50: 5.70 to 6.30
Human M4 receptor
  pEC50: ≥ 7.00

## COc1nc(C)nc2c1CN(C(=O)CC1CN(c3ncns3)C1)C2 [Compound I-45, 2-(1-(1,2,4-Thiadiazol-5-yl)azetidin-3-yl)-1-(4-methoxy-2-methyl-5,7-dihydro-6H-pyrrolo[3,4-d]pyrimidin-6-yl)ethan-1-one]
hM4 receptors
  pEC50: 6.30 to 7.00
rM4 receptors
  pEC50: 5.70 to 6.30
Human M4 receptor
  pEC50: ≤ 5.70

## COc1nc(OC)c2c(n1)C(C)N(C(=O)CC1CN(c3ccnc(C(F)(F)F)c3)C1)C2 (single isomer, unassigned) [Compound I-70, 1-(2,4-Dimethoxy-7-methyl-5,7-dihydro-6H-pyrrolo[3,4-d]pyrimidin-6-yl)-2-(1-(2-(trifluoromethyl)pyridin-4-yl)azetidin-3-yl)ethan-1-one]
hM4 receptors
  pEC50: 5.70 to 6.30
rM4 receptors
  pEC50: ≤ 5.70
Human M4 receptor
  pEC50: ≥ 7.00

## COc1nc2c(c(C3CCC3)n1)CN(C(=O)CC1CN(c3ccnc(C(F)(F)F)c3)C1)C2 [Compound I-74, 1-(4-Cyclobutyl-2-methoxy-5,7-dihydro-6H-pyrrolo[3,4-d]pyrimidin-6-yl)-2-(1-(2-(trifluoromethyl)pyridin-4-yl)azetidin-3-yl)ethan-1-one]
hM4 receptors
  pEC50: ≤ 5.70
rM4 receptors
  pEC50: ≤ 5.70
Human M4 receptor
  pEC50: ≤ 5.70

## Cc1nc2c(c(OC(C)C)n1)CN(C(=O)CC1CN(c3ccnc(C(F)(F)F)c3)C1)C2 [Compound I-47, 1-(4-Isopropoxy-2-methyl-5,7-dihydro-6H-pyrrolo[3,4-d]pyrimidin-6-yl)-2-(1-(2-(trifluoromethyl)pyridin-4-yl)azetidin-3-yl)ethan-1-one]
hM4 receptors
  pEC50: ≤ 5.70
rM4 receptors
  pEC50: ≤ 5.70
Human M4 receptor
  pEC50: ≤ 5.70

## COc1nc2c(c(OC)n1)CN(C(=O)CC1CN(c3ccnc(C(F)(F)F)c3)C1)C2 [Compound I-64, 1-(2,4-Dimethoxy-5,7-dihydro-6H-pyrrolo[3,4-d]pyrimidin-6-yl)-2-(1-(2-(trifluoromethyl)pyridin-4-yl)azetidin-3-yl)ethan-1-one]
hM4 receptors
  pEC50: 6.30 to 7.00
rM4 receptors
  pEC50: ≤ 5.70
Human M4 receptor
  pEC50: 5.70 to 6.30

## COc1nc(C#N)nc2c1C(C)N(C(=O)CC1CN(c3cccc(F)c3F)C1)C2 (single isomer, unassigned) [Compound I-19, 6-(2-(1-(2,3-Difluorophenyl)azetidin-3-yl)acetyl)-4-methoxy-5-methyl-6,7-dihydro-5H-pyrrolo[3,4-d]pyrimidine-2-carbonitrile]
hM4 receptors
  pEC50: 6.30 to 7.00
rM4 receptors
  pEC50: 6.30 to 7.00
Human M4 receptor
  pEC50: 6.30 to 7.00

## COc1nc(C#N)nc2c1C(C)N(C(=O)CC1CN(c3cnnc(C(F)(F)F)c3)C1)C2 (single isomer, unassigned) [Compound I-24, 4-Methoxy-5-methyl-6-(2-(1-(6-(trifluoromethyl)pyridazin-4-yl)azetidin-3-yl)acetyl)-6,7-dihydro-5H-pyrrolo[3,4-d]pyrimidine-2-carbonitrile]
hM4 receptors
  pEC50: ≤ 5.70
rM4 receptors
  pEC50: ≤ 5.70
Human M4 receptor
  pEC50: ≤ 5.70

## COc1nc(Cl)nc2c1CN(C(=O)CC1CN(c3ccnc(C(F)(F)F)c3)C1)C2 [Compound I-1, 1-(2-Chloro-4-methoxy-5,7-dihydro-6H-pyrrolo[3,4-d]pyrimidin-6-yl)-2-(1-(2-(trifluoromethyl)pyridin-4-yl)azetidin-3-yl)ethan-1-one]
hM4 receptors
  pEC50: 6.30 to 7.00
rM4 receptors
  pEC50: 5.70 to 6.30
Human M4 receptor
  pEC50: ≥ 7.00

## COc1nc(C)nc2c1C(C)N(C(=O)CC1CN(c3cccc(C#N)c3)C1)C2 (single isomer, unassigned) [Compound I-55, 3-(3-(2-(4-Methoxy-2,5-dimethyl-5,7-dihydro-6H-pyrrolo[3,4-d]pyrimidin-6-yl)-2-oxoethyl)azetidin-1-yl)benzonitrile]
hM4 receptors
  pEC50: 5.70 to 6.30
rM4 receptors
  pEC50: 5.70 to 6.30
Human M4 receptor
  pEC50: ≤ 5.70

## COc1nc(C#N)nc2c1CN(C(=O)CC1CN(c3ccnc(C(F)(F)F)c3)C1)C2 [Compound I-2, 4-Methoxy-6-(2-(1-(2-(trifluoromethyl)pyridin-4-yl)azetidin-3-yl)acetyl)-6,7-dihydro-5H-pyrrolo[3,4-d]pyrimidine-2-carbonitrile]
hM4 receptors
  pEC50: ≥ 7.00
rM4 receptors
  pEC50: 5.70 to 6.30
Human M4 receptor
  pEC50: ≥ 7.00

## COc1nc(C)nc2c1C(C)N(C(=O)CC1CN(c3cncnc3)C1)C2 (single isomer, unassigned) [Compound I-60, 1-(4-Methoxy-2,5-dimethyl-5,7-dihydro-6H-pyrrolo[3,4-d]pyrimidin-6-yl)-2-(1-(pyrimidin-5-yl)azetidin-3-yl)ethan-1-one]
hM4 receptors
  pEC50: ≤ 5.70
rM4 receptors
  pEC50: ≤ 5.70
Human M4 receptor
  pEC50: ≤ 5.70

## Cc1nc2c(c(OCC3CC3)n1)CN(C(=O)CC1CN(c3ccnc(C(F)(F)F)c3)C1)C2 [Compound I-50, 1-(4-(Cyclopropylmethoxy)-2-methyl-5,7-dihydro-6H-pyrrolo[3,4-d]pyrimidin-6-yl)-2-(1-(2-(trifluoromethyl)pyridin-4-yl)azetidin-3-yl)ethan-1-one]
hM4 receptors
  pEC50: ≤ 5.70
rM4 receptors
  pEC50: ≤ 5.70
Human M4 receptor
  pEC50: ≤ 5.70

## COc1nc2c(c(OC)n1)C(C)N(C(=O)CC1CN(c3ccnc(C(F)(F)F)c3)C1)C2 (single isomer, unassigned) [Compound I-69, 1-(2,4-Dimethoxy-5-methyl-5,7-dihydro-6H-pyrrolo[3,4-d]pyrimidin-6-yl)-2-(1-(2-(trifluoromethyl)pyridin-4-yl)azetidin-3-yl)ethan-1-one]
hM4 receptors
  pEC50: ≤ 5.70
rM4 receptors
  pEC50: ≤ 5.70
Human M4 receptor
  pEC50: ≤ 5.70
